pIC50: −log10 of the molar value. Where two headings read alike, the source gives them in different places.
Experiments:
Type in all cases: cell-based, human
[1] = system: Jurkat cells; test: Single-dose CCK-8 cell viability screening (suspension cells); conditions: for viability at 50 µM: Homo sapiens, Jurkat, 48 h
Method: (§1) In this example, the anti-cancer properties of the BB analogues described in Table 1d were evaluated. Single-dose screening approach is used for initial testing to assess the cytotoxic effect of the BB analogues (also referred to as ‘BB compounds’) on Jurkat cells (human T cell leukaemia cells) and A549 cells (human lung cancer cells).
Method for Suspension Cells (Jurkat Cells)
5000 cells/90 uL were seeded in 96-well plates. 10 uL of 500 uM compound (10×) was added to each well in 6 replicates. The following controls were prepared.
Blank control: 10 uL 1% DMSO in media with no cells per well.
Positive control: 10 uL of 100 uM 5-flurouracil (10×) per well.
Negative control: 10 uL of 1% DMSO in media (10×) per well.
Each 96-well plate included 7 BB analogues and the complete set of controls (in 6 replicates).
(§2) Cells were incubated at 37° C.+5% CO2 for 46 hours. 10 uL of CCK8 solution was added to each well. Cells were then incubated at 37° C.+5% CO2 for 2 hours. Absorbance at 450 nm was measured using a multiplate reader.
(§3) Viability was calculated using the equation: […]
(§4) The benchmark in Table 2 was used to define the activities of each compound.

[2] = system: A549 cells; test: Single-dose CCK-8 cell viability screening (adherent cells); conditions: for viability at 50 µM: Homo sapiens, A549, 48 h, read-out: % Viability (50 uM, 48 h) A549
Method: as §1
(§5) Method for Adherent Cells (A549 Cells)
(§6) In this example, 5000 cells/100 uL were seeded in 96-well plates and incubate at 37° C.+5% CO2 overnight. Media were replaced with 100 uL of 50 uM compound per well in 6 replicates. The following controls were prepared.
(§7) Blank control: 100 uL 0.1% DMSO in media with no cells per well.
(§8) Positive control: 100 uL of 10 uM 5-flurouracil per well.
(§9) Negative control: 100 uL of 0.1% DMSO in media per well.
(§10) Each 96-well plate included 7 compounds and the complete set of controls (in 6 replicates).
as §2, §3, §4

[3] = as above; conditions: average of A549 and Jurkat % viability, 50 uM, 48 h; for viability at 50 µM: Homo sapiens
Method: as §1, §5, §6, §7, §8, §9, §10, §2, §3, §4

[4] = system: A549 cells; test: Dose-dependent CCK8 viability assay; conditions: Homo sapiens
Method: In this example, dose-dependent CCK8 Viability assay was performed to determine the IC50 (the concentration of compound to achieve 50% viability) of several of the hit compounds identified from Example 2. A variety of cell lines were used: • Jurkat cells: Human leukemia • A549 cells: Human NSCLC • KP-1 cells: Mouse NSCLC with KRAS and P53 mutations • MCF-7 cells: Human breast cancer
Method for Adherent Cells (A549, MCF-7 and KP-1 Cells)
5000 cells/100 uL were seeded in 96-well plates and incubate at 37° C.+5% CO2 overnight. Media were replaced with 100 uL of compound per well in 6 replicates in a series of 2-fold dilutions. The following controls were prepared.
as §7, §8, §9
Each 96-well plate included 1 compound in 7 concentrations and a complete set of controls (in 6 replicates).
Cells were incubated at 37° C.+5% CO2 for 46 hours. 10 uL of CCK8 solution was added to each well. Cells were incubated at 37° C.+5% CO2 for 2 hours. Absorbance at 450 nm was measured using a multiplate reader.
as §3

[5] = Jurkat cells, 50 uM, CCK-8, read-out: % Viability (50 uM, 48 h) Jurkat
[6] = read-out: % Viability (50 uM, 48 h) Jurkat

Structure (SMILES)	viability at 50 µM [1, 5] [%]	viability at 50 µM ([2]; A549 cells, 50 uM, 48 h, CCK-8) [%]	viability at 50 µM ([3]; A549, 48 h) [%]	also measured
CC(C)(C)[C@]1(O)C[C@@H]2OC(=O)C[C@@]23C(=O)O[C@@H]2N(c4ccc(Cl)c(Cl)c4)C(=O)[C@H](OC(=O)c4ccccc4)[C@]213 [P-21, (3aS,5aS,8R,8aS,9R,10aS)-9-(tert-butyl)-9-hydroxy-2,4,7-trioxo-6-(3,4-dichloro-phenyl)octahydro-4H,9H-furo [3″,2″:2′,3′]cyclopenta [1′,2′:3,4]furo [2,3-b]pyrrol-8-yl benzoate]	53.5	56.5	55	pIC50 ([4]; A549, 48 h): 4.75
CC(C)(C)[C@]1(O)C[C@@H]2OC(=O)C[C@@]23C(=O)O[C@@H]2N(CC45CC6CC(CC(C6)C4)C5)C(=O)[C@H](OC(=O)c4ccccc4)[C@]213 [SCC363, (3aS,5aS,8R,8aS,9R,10aS)-6-(adamantan-1-ylmethyl)-9-(tert-butyl)-9-hydroxy-2,4,7-trioxooctahydro-4H,9H-furo[3″,2″:2′,3′]cyclopenta[1′,2′:3,4]furo[2,3-b]pyrrol-8-yl benzoate]	–	–	–	pIC50 ([4]; 48 hours): 5.00
Cc1c(CCN2C(=O)[C@H](OC(=O)c3ccccc3)[C@@]34[C@@H]2OC(=O)[C@@]32CC(=O)O[C@H]2C[C@@]4(O)C(C)(C)C)[nH]c2ccccc12 [XBB-029, (3aS,5aS,8R,8aS,9R,10aS)-9-(tert-butyl)-9-hydroxy-6-(2-(3-methyl-1H-indol-2-yl)ethyl)-2,4,7-trioxooctahydro-4H,9H-furo [3″,2″:2′,3′]cyclopenta[1′,2′:3,4]furo[2,3-b]pyrrol-8-yl benzoate]	93.4	96.1	94.8	–
CC(C)(C)[C@]1(O)C[C@@H]2OC(=O)C[C@@]23C(=O)O[C@@H]2N(c4ccccc4)C(=O)[C@H](OC(=O)c4ccccc4)[C@]213 [XBB-034, (3aS,5aS,8R,8aS,9R,10aS)-9-(tert-butyl)-9-hydroxy-2,4,7-trioxo-6-phenyloctahydro-4H,9H-furo[3″,2″:2′,3′]cyclopenta [1′,2′:3,4]furo[2,3-b]pyrrol-8-yl benzoate]	–	–	–	viability at 50 µM [1, 6]: 89.1%; viability at 50 µM [2]: 56%; viability at 50 µM [3]: 72.5%
CC(=O)Nc1ccc(N2C(=O)[C@H](OC(=O)c3ccccc3)[C@@]34[C@@H]2OC(=O)[C@@]32CC(=O)O[C@H]2C[C@@]4(O)C(C)(C)C)cc1 [XBB-035, (3aS,5aS,8R,8aS,9R,10aS)-6-(4-acetamidophenyl)-9-(tert-butyl)-9-hydroxy-2,4,7-trioxooctahydro-4H,9H-furo [3″,2″:2′,3′]cyclopenta [1′,2′:3,4]furo[2,3-b]pyrrol-8-yl benzoate]	87	66.9	76.9	–
CC(C)(C)OC(=O)Nc1ccc(N2C(=O)[C@H](OC(=O)c3ccccc3)[C@@]34[C@@H]2OC(=O)[C@@]32CC(=O)O[C@H]2C[C@@]4(O)C(C)(C)C)cc1 [XBB-036]	88.8	52.4	70.6	–
CC(C)(C)[C@]1(O)C[C@@H]2OC(=O)C[C@@]23C(=O)O[C@@H]2N(c4ccc(N)cc4)C(=O)[C@H](OC(=O)c4ccccc4)[C@]213 [XBB-037′]	–	–	–	% Viability (50 uM, 48 h) Jurkat ([1]; Jurkat cells, 50 uM, CCK-8, 50 µM): 98.42%; % Viability (50 uM, 48 h) A549 ([2]; A549 cells, 50 uM, 48 h, CCK-8): 110.02%; Average (%) [3]: 104.22%
CC(C)(C)[C@]1(O)C[C@@H]2OC(=O)C[C@@]23C(=O)O[C@@H]2N(c4ccc(N5CCOCC5)cc4)C(=O)[C@H](OC(=O)c4ccccc4)[C@]213 [XBB-038, (3aS,5aS,8R,8aS,9R,10aS)-9-(tert-butyl)-9-hydroxy-6-(4-morpholinophenyl)-2,4,7-trioxooctahydro-4H,9H-furo [3″,2″:2′,3′]cyclopenta [1′,2′:3,4]furo [2,3-b]pyrrol-8-yl benzoate]	84.8	95.3	90.1	–
CC(C)(C)[C@]1(O)C[C@@H]2OC(=O)C[C@@]23C(=O)O[C@@H]2N(c4ccc5c(c4)OCO5)C(=O)[C@H](OC(=O)c4ccccc4)[C@]213 [XBB-039, (3aS,5aS,8R,8aS,9R,10aS)-6-(benzo[d][1,3]dioxol-5-yl)-9-(tert-butyl)-9-hydroxy-2,4,7-trioxooctahydro-4H,9H-furo [3″,2″:2′,3′]cyclopenta [1′,2′:3,4]furo [2,3-b]pyrrol-8-yl benzoate]	69.7	78.4	74.1	–
CC(C)(C)[C@]1(O)C[C@@H]2OC(=O)C[C@@]23C(=O)O[C@@H]2N(c4cccnc4)C(=O)[C@H](OC(=O)c4ccccc4)[C@]213 [XBB-040, (3aS,5aS,8R,8aS,9R,10aS)-9-(tert-butyl)-9-hydroxy-2,4,7-trioxo-6-(pyridin-3-yl)octahydro-4H,9H-furo [3″,2″:2′,3′]cyclopenta [1′,2′:3,4]furo [2,3-b]pyrrol-8-yl benzoate]	–	–	99	viability at 50 µM [1, 6]: 98.4%; viability at 50 µM [2]: 99.6%
CC(C)(C)[C@]1(O)C[C@@H]2OC(=O)C[C@@]23C(=O)O[C@@H]2N(c4ccc(N5CCOCC5)cc4)C(=O)[C@H](O)[C@]213 [XBB-042, (3aS,5aS,8R,8aS,9R,10aS)-9-(tert-butyl)-8,9-dihydroxy-6-(4-morpholinophenyl)tetrahydro-4H,9H-furo [3″,2″:2′,3′]cyclopenta [1′,2′:3,4]furo [2,3-b]pyrrole-2,4,7(3H,8H)-trione]	–	–	96.7	viability at 50 µM [1, 6]: 97.8%; viability at 50 µM [2]: 95.6%
CC(C)(C)[C@]1(O)C[C@@H]2OC(=O)C[C@@]23C(=O)O[C@@H]2N(CC4CCN(C(=O)c5ccc6c(c5)OCCO6)CC4)C(=O)[C@H](OC(=O)c4ccccc4)[C@]213 [XBB-045, (3aS,5aS,8R,8aS,9R,10aS)-9-(tert-butyl)-6-((1-(2,3-dihydrobenzo[b][1,4]dioxine-6-carbonyl)piperidin-4-yl)methyl)-9-hydroxy-2,4,7-trioxooctahydro-4H,9H-furo [3″,2″:2′,3′]cyclopenta [1′,2′:3,4]furo[2,3-b]pyrrol-8-yl benzoate]	84.8	87	85.9	–
CC(=O)O[C@H]1C(=O)N(CCn2cc3ccccc3c2C)[C@H]2OC(=O)[C@]34CC(=O)O[C@H]3C=C(C(C)(C)C)[C@@]214 [XBB-054]	93	88.8	90.9	–
CC(=O)O[C@H]1C(=O)N(CC2CCN(C(=O)OC(C)(C)C)CC2)[C@H]2OC(=O)[C@]34CC(=O)O[C@H]3C=C(C(C)(C)C)[C@@]214 [XBB-060]	104	108	106	–
CC(C)(C)[C@]1(O)C[C@@H]2OC(=O)C[C@@]23C(=O)O[C@@H]2N(c4cccc5c4OCO5)C(=O)[C@H](OC(=O)c4ccccc4)[C@]213 [XBB-068]	101	93.6	97.5	–
CC(=O)O[C@H]1C(=O)NC(N)=N[C@H]2OC(=O)[C@]34CC(=O)O[C@H]3C=C(C(C)(C)C)[C@@]214 [XBB-073]	107	66.5	86.5	–
C=C(C)[C@@]1(C)C[C@@H]2OC(=O)C[C@@]23C(=O)O[C@@H]2N(c4ccccc4)NC(=O)[C@H](OC(C)=O)[C@]213 [XBB-075]	101	67.4	84	–

— patent US20250144069A1, “BILOBALIDE DERIVATIVE COMPOUNDS FOR TREATING NEUROLOGICAL DISEASES AND CANCERS” (The Chinese University of Hong Kong, priority 2023, published 2025)
